Data taken from EP4745151A1, “FIBROBLAST ACTIVATION PROTEIN LIGAND AND USE THEREOF” (Jiangsu Hengrui Pharmaceuticals Co., Ltd., priority 2023, dated 2025).
Like-named read-outs stand apart in the source and are kept apart here. Numbered stars: 1 amine (or outer) side, 2 acyl side, 3 side chain; on linkers, the order of the positions; unused ones are H or OH. Bridge positions count the residues as written; N and C are the ends. Square brackets hold non-standard residues; d marks the D form. Peptide text beside a SMILES is read from it. * marks the point of attachment. TBMB(SCH2CH2NH-DOTA) = O=C(O)CN1CCN(CC(=O)O)CCN(CC(=O)NCCSCc2cc(C[*:1])cc(C[*:2])c2)CCN(CC(=O)O)CC1; Phe(2-CF3) = N[C@@H](Cc1ccccc1C(F)(F)F)C(=O)O; Hyp = O=C(O)[C@@H]1C[C@@H](O)CN1; Hexanoyl = CCCCCC(=O)*; Aib = CC(C)(N)C(=O)O

Columns and labels:
[1] = Plasma concentration (pharmacokinetic) experiment of 177Lu-labelled compounds; settings: for tissue uptake: SD, rat, whole blood, iv, total radioactivity
Description: (§1) Experimental animals: Germline: SD rat (Beijing Vital River Laboratory Animal Technology Co., Ltd.); Age: 5-6 weeks old; Body weight: 100-150 g.
(§2) • 1) Empty tubes for γ-counting were weighed and labelled in advance. • 2) After the test sample was injected into the tail vein of rats, animal blood samples were collected from the orbit at 2 min, 5 min, 15 min, 30 min, 1 h, 2 h, 4 h, 6 h, 24 h, 48 h and 72 h. The sample tubes containing blood were weighed. • 3) The net weight of the blood was calculated, and the radioactive count of the collected blood was determined using a γ-counter. • 4) The distribution of the labelled compound in the blood of rats at different time points was determined. The test sample was accurately diluted 100-fold, and 0.5 ml of the dilution was added to a counting tube to serve as a 1% ID standard (i.e., one percent of the injected dose). The radioactive counts of both the 1% ID standard and the biological samples were simultaneously determined using the γ-counter. • 5) The pharmacokinetic parameters were calculated using DAS software.
(§3) Data obtained from rat blood was expressed as the percentage of radioactive count per gram of blood relative to the total dose (radioactive count) (%ID/g). Specific calculation formula: [formula]
(§4) At the same time, the drug concentration in the blood was calculated on the basis of the radioactive count in the blood. Specific calculation formula: Plasma concentration (μCi/mL) = ((CPMBlood/CPMTotal administered dose) × D (μCi)Administered dose)/(w (g) Blood/i (g/mL)Blood density) [formula]

[2] = tested on: U-87 MG cells; settings: mouse, in vivo
Description: (§5) Experimental animals: Germline: B-NDG (Biocytogen Jiangsu Co., Ltd.); Age: 5-8 weeks old; Body weight: 20-24 g.
(§6) A sufficient quantity of U-87 MG cells was prepared and inoculated into the posterior position of the right forelimb of B-NDG mice in an inoculation volume of 100 µl, containing 50% Matrigel and 5 × 10^6 cells. After inoculation, the tumour volume and animal body weight were monitored twice a week. Model mice with a tumour volume between 200 and 500 m^3 were selected for enrolment in this experiment and randomly grouped on the basis of tumour volume.

[3] = tested on: U-87 MG cells; test: In vivo efficacy experiment in U-87 MG model mice; parameters: species or system B-NDG mice
Description: A total of 90 mice were inoculated. When the tumour in the mice grew to about […], 40 mice with uniform tumour sizes were selected for study enrolment.
The administration regimen was as follows: • Route of administration: tail vein injection; • Administration volume: 0.03-0.07 mL/animal; • Administration frequency and dose: The control group was given PBS, the ^177Lu-FAP-2286 group was given a single dose of 0.8 mCi/animal, the ^177Lu-DOTA-09 0.4mCi group was given a single dose of 0.4 mCi/animal, the ^177Lu-DOTA-09 0.8 mCi group was given a single dose of 0.8 mCi/animal, the ^177Lu-DOTA-09 0.8mCi×2 group was given two doses of 0.8 mCi/animal, with an administration interval of 35 days. Each group included eight animals. The administration time and administration activity of each mouse were recorded in detail.
After tumour modelling, the tumour size was observed. On the day before administration or the day of administration, the tumour volume was measured using a digital calliper, and the animal body weight was recorded. The animals were evenly divided into five groups on the basis of tumour volume, as follows: control group, ^177Lu-FAP-2286 0.8 mCi group, ^177Lu-DOTA-09 0.4 mCi group, ^177Lu-DOTA-09 0.8 mCi group, and ^177Lu-DOTA-09 0.8 mCi*2 group, with eight animals in each group.
On the day of administration, the test sample was taken for preparation (the stock solution of the test sample was directly used), and the activity of the prepared solution was measured.
From the second day after administration, the stage of tumour and body weight measurement began. The tumour and body weight measurement was performed at least twice a week. During each measurement, the long and short diameters of the tumour were recorded. The measurements were kept at the same location as possible. The abnormalities and deaths of the animals were recorded in time. […] The tumour volume was calculated as follows: tumour volume (mm^3) = long diameter × short diameter × short diameter × 0.52.

[4] = PET/SPECT imaging test of labelled compounds in U-87 MG tumour-bearing mice; settings: B-NDG, mouse, tumour and kidney, iv, total radioactivity
Description: as §5, §6

[5] = tested on: U-87 MG cells; test: as above; settings: for Tumour uptake: 177Lu-labelled
Description: as §5, §6

[6] = rat, in vivo
Description: as §1, §2, §3, §4

## CCCCCC(=O)N[C@H]1CSCc2cc(CSCCNC(=O)CN3CCN(CC(=O)O)CCN(CC(=O)O)CCN(CC(=O)O)CC3)cc(c2)CSC[C@@H](C(=O)O)NC(=O)[C@H](Cc2ccccc2C(F)(F)F)NC(=O)[C@H](CCC(N)=O)NC(=O)[C@H]([C@@H](C)O)NC(=O)[C@@H]2C[C@@H](O)CN2C(=O)[C@@H]2CCCN2C(=O)C(C)(C)NC1=O [^177Lu-DOTA-09, metal not drawn] (Hexanoyl-C[Aib]P[Hyp]TQ[Phe(2-CF3)]C-OH; linker 1-8 via TBMB(SCH2CH2NH-DOTA))
[1]; SD rat, tail vein, blood
  Cl_obs: 0.10±0.02 µCi/h*%ID/g
  Cmax: 0.89±0.21 %ID/g
  MRTlast: 15.49 ± 0.36 h
  Vz_obs: 2.21±0.38 µCi/%ID/g
[1]; AUCINF_obs, SD rat, tail vein, blood
  tissue uptake: 5.28 ± 1.07
[1]; AUClast, SD rat, tail vein, blood
  tissue uptake: 5.04 ± 0.94
[1]; rats, versus 177Lu-FAP-2286, in words
  mean residence time (MRTlast) compared with control: significantly longer
[2]
  course of tumour uptake / intratumoral retention: decreased slowly
[3]; during administration, all dose groups
  body weight changes of mice: No significant body weight changes
[4]
  tissue to tissue ratio at 0.5 h: 6.08 ± 1.62
  tissue to tissue ratio at 1.5 h: 8.66 ± 0.73
  tissue to tissue ratio at 4 h: 11.8 ± 2.62
  tissue to tissue ratio at 24 h: 19.4 ± 5.84
[5]; Table 5, 0.5 h
  Tumour uptake: 29.52±2.98
[5]; Table 5, 1.5 h
  Tumour uptake: 30.88±3.14
[5]; Table 5, 4.0 h
  Tumour uptake: 31.09±3.88
[5]; Table 5, 24h
  Tumour uptake: 30.46±1.99
[5]; Table 5, 48h
  Tumour uptake: 24.10±2.21
[5]; Table 5, 72h
  Tumour uptake: 20.59±1.91
[5]; Table 5, 168h
  Tumour uptake: 12.81±0.90
[5]; versus 177Lu-FAP-2286, in words
  tumour/kidney ratio compared with control: higher
[6]
  half-life (t1/2) compared with control: significantly longer
  t1/2: 9.12 ± 4.69 h

## CCCCCC(=O)N[C@H]1CSCc2cc(CSCCNC(=O)CN3CCN(CC(=O)O)CCN(CC(=O)O)CCN(CC(=O)O)CC3)cc(c2)CSC[C@@H](C(=O)O)NC(=O)[C@H](Cc2ccccc2)NC(=O)[C@H](CCC(N)=O)NC(=O)[C@H]([C@@H](C)O)NC(=O)[C@@H]2CCCN2C(=O)[C@@H]2CCCN2C1=O [^177Lu-FAP-2286, metal not drawn]
[2]
  course of tumour uptake / intratumoral retention: rapid decrease in intratumoral retention after 4 hours
[3]; day 20 after administration, single dose of 0.8 mCi/animal
  tumour inhibition rate: 40.02%
[3]; day 20 after administration, single dose of 0.8 mCi/animal, tail vein
  tumour size: 1833.89 ± 338.00 mm^3
[3]; single dose of 0.8 mCi/animal
  median survival time: 39 days
[4]
  tissue to tissue ratio at 0.5 h: 3.29 ± 0.78
  tissue to tissue ratio at 1.5 h: 6.53 ± 1.12
  tissue to tissue ratio at 4 h: 9.82 ± 4.79
  tissue to tissue ratio at 24 h: 2.75 ± 0.9
[6]
  Cl_obs: 0.53±0.08 µCi/h*%ID/g
  Cmax: 0.73±0.27 %ID/g
  MRTlast: 2.52 ± 0.34 h
  Vz_obs: 1.50±0.97 µCi/%ID/g
  t1/2: 1.29 ± 0.43 h
